From patent US20240374487A1, “ANTI-AGING AGENT, COSMETIC PRODUCT, WET TOWEL, AND HYGIENE PRODUCT” (VB JAPAN TECHNOLOGY CO., LTD., priority 2021, published 2024)

Key:
[1] = tested on: AGE receptor (FEEL-1, FEEL-2, CD-36, AGE-R1, AGE-R2, AGE-R3 and RAGE); assay: mRNA levels of AGE receptors by qRT-PCR in normal human dermal fibroblasts; assay type: cell-based; conditions: VB alone, no AGE, 37° C. 4 hours, compared with untreated group
Procedure: (§1) Normal human dermal fibroblasts (NHDF), juvenile foreskin (C-12300, PromoCell) were cultured in a dedicated medium, Fibroblast Growth Medium (C-23010, PromoCell) at 37° C. in a 5% CO2 incubator.
(§2) First, as a co-existence group of VB and AGE, normal human dermal fibroblasts were treated with AGE (100 μg/mL), and the above VB2 (concentration after dilution: 115 μg/ml) and VB3 (concentration after dilution: 1000 μg/mL) diluted to an accurate 1/1000 amount were each added and retained at 37° C. for 4 hours. […]
(§3) Then, total RNA was extracted from the cells using Trizol reagent (Ambion), and mRNA levels of AGE receptor (FEEL-1, FEEL-2, CD-36, AGE-R1, AGE-R2, AGE-R3 and RAGE) and heat shock protein (Hsp104, gp96, Hsp90, Hsp70, Hsp60, and Hsp32) were measured by qRT-PCR (one-step quantitative reverse transcription-polymerase chain reaction) method. […]
(§4) The qRT-PCR method used for the measurement of AGE receptor, heat shock protein, aquaporin, hyaluronic acid, and Elastin will be described. In the qRT-PCR method, 500 ng of the obtained total RNA was used as a template for PCR, and one step RT-PCR capable of performing CDNA synthesis by a reverse transcription reaction (Reverse Transcriptase; RT reaction) and quantitative PCR in one test tube was performed using Luna Universal One-Step qRT-PCR Kit. […]

FEEL-1 = FEEL-1 mRNA level by qRT-PCR in AGE-treated fibroblasts; assay type: cell-based, human; conditions: co-existence with AGE 100 μg/mL, 4 hours, compared with AGE single stimulation group
Procedure: as §1, §2, §3, §4

FEEL-2 = FEEL-2 mRNA level by qRT-PCR in AGE-treated fibroblasts; assay type: cell-based, human; conditions: co-existence with AGE 100 μg/mL, 4 hours, compared with AGE single stimulation group
Procedure: as §1, §2, §3, §4

RAGE = RAGE mRNA level by qRT-PCR in AGE-treated fibroblasts; assay type: cell-based, human; conditions: co-existence with AGE 100 μg/mL, 4 hours, compared with AGE single stimulation group
Procedure: as §1, §2, §3, §4

[2] = tested on: heat shock protein (Hsp104, gp96, Hsp90, Hsp70, Hsp60, and Hsp32); assay: mRNA levels of heat shock proteins by qRT-PCR in fibroblasts; assay type: cell-based, human; conditions: 4 hours
Procedure: as §1
First, as a co-existence group of VB and AGE, normal human dermal fibroblasts were treated with AGE (100 μg/mL), and the above VB2 (concentration after dilution: 115 μg/ml) and VB3 (concentration after dilution: 1000 μg/mL) diluted to an accurate 1/1000 amount were each added and retained at 37° C. for 4 hours.
In addition, as the VB single stimulation group, normal human dermal fibroblasts were not treated with AGE, and the above VB2 and VB3 diluted to an accurate 1/1000 amount were each added and held at 37° C. for 4 hours. Furthermore, as the AGE single stimulation group, normal human dermal fibroblasts were treated with AGE and kept at 37° C. for 4 hours without addition of VB2 or VB3. In addition, as an untreated group, normal human dermal fibroblasts were not treated with AGE, and were kept at 37° C. for 4 hours without adding VB2 or VB3.
Then, total RNA was extracted from the cells using Trizol reagent (Ambion), and mRNA levels of AGE receptor (FEEL-1, FEEL-2, CD-36, AGE-R1, AGE-R2, AGE-R3 and RAGE) and heat shock protein (Hsp104, gp96, Hsp90, Hsp70, Hsp60, and Hsp32) were measured by qRT-PCR (one-step quantitative reverse transcription-polymerase chain reaction) method.
The measurement results for AGE receptor are shown in FIG. 1, and the measurement results for heat shock protein are shown in FIG. 2. In FIG. 1 and FIG. 2, for the co-existence group of AGE and VB, samples to which VB2 and VB3 were added are indicated as VB2(+)AGE and VB3(+)AGE, respectively, and these values were shown in comparison with the AGE single stimulation group. In addition, for the VB single stimulation group, samples to which VB2 and VB3 were added were indicated as VB2 alone and VB3 alone, respectively, and these values were shown in comparison with the untreated group.
(§5) The qRT-PCR method used for the measurement of AGE receptor, heat shock protein, aquaporin, hyaluronic acid, and Elastin will be described. In the qRT-PCR method, 500 ng of the obtained total RNA was used as a template for PCR, and one step RT-PCR capable of performing CDNA synthesis by a reverse transcription reaction (Reverse Transcriptase; RT reaction) and quantitative PCR in one test tube was performed using Luna Universal One-Step qRT-PCR Kit.
As a PCR device, Thermal Cycler Dice Real Time System II manufactured by Takara was used. […]
(§6) The reaction was performed under the conditions of 1 cycle of 30 seconds at 95° C., and further cycles of 5 seconds at 95° C. and 30 seconds at 60° C. for 50 cycles. A variation in mRNA expression by 4 times or more (2 cycles as PCR reaction) was determined as a significant difference.

intracellular ROS [3] = assay: Intracellular ROS against AGE (DCF-DA fluorescence); assay type: cell-based, human; conditions: AGE 100 μg/mL, 4 hours, FIG. 3
Procedure: as §1
Normal human dermal fibroblasts were treated with AGE (100 μg/mL) and maintained at 37° C. for 4 hours with the addition of VB2 and VB3, respectively. Here, VB2 and VB3 were added at concentrations of 1 μg/mL, 10 μg/mL, 100 μg/mL, and 300 μg/mL, respectively. In FIGS. 3 and 4, which are graphs showing the results, those to which VB2was added were denoted as “VB2-AGE”, and those to which VB3 was added were denoted as “VB3-AGE”.
As Control, measurement was also performed on normal human dermal fibroblasts which were not treated with AGE and were held at 37° C. for 4 hours without addition of VB2 or VB3, and as an AGE single stimulation group, measurement was also performed on normal human dermal fibroblasts which were treated with AGE (100 μg/mL) and were held at 37° C. for 4 hours without addition of VB2 or VB3 (in FIGS. 3 and 4, it is denoted as “AGE”.).
Measurement of intracellular ROS was performed using fluorescence using dichlorofluorescin diacetate (DCF-DA; Invitrogen, Carlsbad, CA, USA). […] The intracellular ROS level was measured at an excitation wavelength of 525 nm using fluorescence intensity using the micro plate reader (SYNERGY/HT, BioTek, Japan).

[4] = tested on: normal human dermal fibroblasts; assay: Cell viability under hydrogen peroxide oxidative stress (Cell counting-8 kit); assay type: cell-based; conditions: for cell viability, trend: 1-300 μg/mL
Procedure: as §1
(§7) Normal human dermal fibroblasts were cultured for 2 hours in a culture solution to which 0.2 mM hydrogen peroxide was added, then washed off with PBS, and replaced with a normal medium to continue the cultivation. VB2 and VB3 were each added at any timing before or after hydrogen peroxide was added, and co-cultured for 4 hours. Thereafter, the cells or the culture solution were recovered.
In FIG. 5 which is a graph showing the results, a sample obtained by adding VB2 or VB3 after adding hydrogen peroxide was denoted as “H2O2-VB2” and “H2O2-VB3”, respectively, and a sample obtained by adding hydrogen peroxide after adding VB2 or VB3 was denoted as “VB2-H2O2” and “VB3-H2O2”, respectively.
Here, VB2 and VB3 were added at concentrations of 1 μg/mL, 10 μg/mL, 100 μg/mL, and 300 μg/mL, respectively.
The normal human dermal fibroblasts to which neither hydrogen peroxide nor VB2 nor VB3 was added were treated in the same manner as described above, and measured as Control. In addition, a sample to which VB2 or VB3 was not added (in FIG. 5, it is denoted as “H2O2”) was also treated in the same manner as described above, and measurement was performed.
The number of surviving cells in normal human dermal fibroblasts was measured using Cell counting −8 kit (DOJINDO: , Japan).

intracellular ROS [5] = assay: Intracellular ROS production against hydrogen peroxide (DCF-DA); assay type: cell-based, human; conditions: added before and after 0.2 mM hydrogen peroxide, 1-300 μg/mL
Procedure: Measurement of intracellular ROS was performed using fluorescence using dichlorofluorescin diacetate (DCF-DA; Invitrogen, Carlsbad, CA, USA). Specifically, cells were washed with PBS, and then incubated with 10 μM DCF-DA at 37° C. for 20 minutes. The intracellular ROS level was measured at an excitation wavelength of 525 nm using fluorescence intensity using the micro plate reader (SYNERGY/HT, BioTek, Japan).
as §7
According to the procedure described in “Measurement of Cell Viability” above, normal human dermal fibroblasts were treated and cultured (co-culture), and cells or the culture solution was recovered. The concentrations of VB2 and VB3 used and the notation of the samples in FIGS. 6 and 7, which are graphs showing the results, are also similar to the above “Measurement of Cell Viability”.
The measurement of intracellular ROS and the measurement of superoxide (SOD) were performed by the same methods as the methods described in “Measurement of Intracellular Reactive Oxygen (ROS) Production and Superoxide (SOD) against AGE” above, respectively.
FIGS. 6 and 7 show the results of each sample when Control is 100%.

SOD = SOD amount against hydrogen peroxide (SOD Assay Kit); assay type: cell-based, human; conditions: added before and after 0.2 mM hydrogen peroxide, 1-300 μg/mL (H2O2 only 56% of Control)
Procedure: Superoxide (SOD) was measured using SOD Assay Kit (Cayman Chemical, Ann arbor, MI, USA). Cells that had been subjected to various treatments were incubated for 24 hours, and then a Lysis buffer was added, homogenized, and centrifuged. Then, 10 μL of each sample was mixed with 200 μL of xanthine oxidase at room temperature. After 30 minutes, the absorbance at 450 nm was measured.
as §7
According to the procedure described in “Measurement of Cell Viability” above, normal human dermal fibroblasts were treated and cultured (co-culture), and cells or the culture solution was recovered. The concentrations of VB2 and VB3 used and the notation of the samples in FIGS. 6 and 7, which are graphs showing the results, are also similar to the above “Measurement of Cell Viability”. […]

AQP-1 = AQP-1 mRNA level under oxidative stress (qRT-PCR); assay type: cell-based, human
Procedure: as §7
(§8) According to the procedure described in “Measurement of Cell Viability” above, normal human dermal fibroblasts were treated and cultured (co-culture), and cells or the culture solution was recovered. The notation of the sample in FIGS. 8 and 9, which are graphs showing the results, is also the same as in the “Measurement of Cell Viability” described above.
(§9) The measurement of aquaporin was performed for AQP-1 and AQP-3 by a qRT-PCR method, and the measurement result was obtained by a ΔΔCt method. […] The qRT-PCR method is s specifically described in “qRT-PCR method” described later.
as §5
(§10) As a PCR device, Thermal Cycler Dice Real Time System II manufactured by Takara was used. As one reaction system, 10 μL of Luna Universal One-Step Reaction Mix (2×), 1 μL of Luna WarmStart RT Enzyme Mix (20×), 0.8 μL of Forward primer (10 μM), 0.8 μL of Reverse primer, and Total RNA as a template for the PCR were used, and the total amount was adjusted to 20 μL in Nuclease-free Water.
as §6

AQP-3 = AQP-3 mRNA level under oxidative stress (qRT-PCR); assay type: cell-based, human
Procedure: as §7, §8, §9, §5, §10, §6

hyaluronic acid = assay: Hyaluronic acid secreted into culture supernatant (ELISA); assay type: cell-based, human
Procedure: as §7
(§11) According to the procedure described in “Measurement of Cell Viability” above, normal human dermal fibroblasts were treated and cultured (co-culture), and cells or the culture solution was recovered. The concentrations of VB2 and VB3 used and the notation of the samples in FIGS. 10 and 11, which are graphs showing the results, are also similar to the above “Measurement of Cell Viability”.
(§12) The production amounts of hyaluronic acid and Elastin were measured by an ELISA method. The results of measuring the amount of hyaluronic acid secreted from normal human dermal fibroblasts into the culture supernatant by the ELISA method are shown in FIG. 10, and the results of measuring the amount of intracellular Elastin production by the ELISA method are shown in FIG. 11.

Elastin = assay: Intracellular Elastin production (ELISA); assay type: cell-based, human
Procedure: as §7, §11, §12

[6] = added before or after 0.2 mM hydrogen peroxide
[7] = added in advance before oxidative stress, compared with addition after
[8] = added in advance before applying oxidative stress

Na9[SbW9O33] [VB3] was tested, and the “mRNA expression of AGE receptor” value [1] was “did not affect”, the “mRNA level of FEEL-1” value (FEEL-1) was “significantly increased” and the “mRNA level of FEEL-2” value (FEEL-2) was “significantly increased”. For the same substance, the “mRNA level of RAGE” value (RAGE) was “significantly increased”, the “mRNA expression of Hsp” value ([2]; VB alone, no AGE, compared with untreated group) was “did not affect” and the “mRNA levels of all Hsps other Hsp 90 among the examined Hsps” value ([2]; co-existence with AGE 100 μg/mL, compared with AGE single stimulation group) was “significantly increased”. The “intracellular ROS under AGE stimulation” value (intracellular ROS [3]) was “suppress the increase in ROS”, the maximum cell viability ([4]; added after 0.2 mM hydrogen peroxide, 300 μg/mL, % of Control (H2O2 only 59%)) was 78% and the “cell viability, trend” value ([4]; added after 0.2 mM hydrogen peroxide) was “increased in a concentration-dependent manner”. For the same substance, the “cell viability, trend” value ([4]; added in advance before 0.2 mM hydrogen peroxide) was “significant increase in a concentration-dependent manner”, the ROS production (intracellular ROS [5]) was “suppressed in a concentration-dependent manner” and the SOD amount (SOD) was “tended to be recovered in a concentration-dependent manner”. The “mRNA level of AQP-1” value (AQP-1; [6]) was “increased”, the “AQP-1 mRNA repair ability, addition before vs after oxidative stress” value (AQP-1; [7]) was “tended to have a stronger repair ability” and the “mRNA level of AQP-3” value (AQP-3; [6]) was “increased”. For the same substance, the “AQP-3 mRNA repair ability, addition before vs after oxidative stress” value (AQP-3; [7]) was “tended to have a stronger repair ability”, the “amount of hyaluronic acid” value (hyaluronic acid; 0.2 mM hydrogen peroxide oxidative stress, culture supernatant) was “tended to be recovered” and the “hyaluronic acid repair ability, addition before vs after oxidative stress” value (hyaluronic acid; [7]) was “tended to have a stronger repair ability”. For the same substance, the Elastin production amount (Elastin; added after application of oxidative stress (H2O2 only 56% of Control)) was “could not be recovered”, the Elastin production amount (Elastin; [8]) was “significant recovery” and the “concentration at which Elastin production amount was significantly higher than Control” value (Elastin; [8]) was 300 µg/mL.
